Entries after “also recorded” stand apart in the source; their conditions may differ.
Experiments:
[1] = test system: p53/Mdm2, p53/MdmX or Mdm2/MdmX complex; experiment: co-immunoprecipitation of p53/Mdm2/MdmX complexes in MCF7 cells; assay type: cell-based, human; details: 10 μg/ml, 6 hours
Description: MCF7 cells were seeded in a 10-cm dish overnight and treated for 6 hours with 10 μg/ml (28 μM) MEL23, 5.3 μg/ml (10 μM) Nutlin-3a or DMSO. […] The experimental conditions of the results shown in FIG. 33B were as follows: FLAG-Mdm2 was transfected into cells and after 24 hours, treated with compounds, and cell lysates were incubated with anti-FLAG M2 antibody for 2 hours, followed by incubation with Protein-A/G sepharose beads for an hour at 4° C. Beads were washed and proteins eluted with 5×SDS and separated on SDS-PAGE.

Mdm2 = experiment: Western blot of Mdm2 in MEFs; assay type: cell-based, mouse; details: 5 μg/ml (14 μM), 6 hours
Description: MEFs were treated with 5 μg/ml (14 μM) of MEL23 for 6 hours. Cells were lysed and analyzed by Western blotting using anti-Mdm2 and anti-eIF4E antibodies. NT indicates a no treatment control.
Cells were seeded and treated with the indicated compound(s). Cells were lysed after each time point in a buffer of 50 mM TrisHCl pH 7.5, 200 mM NaCl, 0.5% NP-40, and 1 complete mini EDTA-free protease inhibitor cocktail tablet per 10 mL of buffer (Roche, Cat. No. 8360170). Protein content was quantified using a Biorad protein assay reagent (Bio-Rad Laboratories, Hercules, Calif., Cat. No. 500-0006). SDS sample buffer was added to the samples, and the mixture was boiled for 5 minutes. Equal amounts of protein were resolved on a 1D SDS-PAGE gel. Following separation proteins were transferred to nitrocellulose membrane, blocked with 5% milk, and then incubated with primary antibody overnight at 4° C. The membrane was incubated with secondary-HRP antibody for 45 minutes at room temperature and developed with SuperSignal West Pico Substrate (Pierce, Rockford, Ill., Cat. No. 34080).

[2] = test system: Mdm2, p21, puma, and bax transcripts; experiment: qRT-PCR of p53 target genes in RKO cells; assay type: cell-based, human; details: 5 μg/ml MEL23, 24 or 48 hours
Description: RKO cells were treated with 5 μg/ml (14 μM) MEL23 for 24 or 48 hours. Quantitative real-time PCR was used to analyze the mRNA levels of the Mdm2, p21, puma, and bax transcripts. All values are normalized to no treatment, DMSO control. The figure is representative of three independent experiments and standard error bars represent intra-experimental error.
RKO cells were treated with 5 μg/ml (14 μM) MEL23 for 24 or 48 hours, 0.1 μg/ml (0.2 μM) doxorubicin for 48 hours, or 10 μM ALLN for 24 hours. Quantitative real-time PCR was used to analyze mRNA levels of the Mdm2, p21, puma, and bax transcripts. All values were normalized to no treatment (NT), DMSO control. The figure is representative of three independent experiments and standard error bars represent intra-experimental error.
RNA was harvested using RNeasy Mini kit (Qiagen, Cat. No. 74104) and first-strand cDNA synthesis was performed with the TaqMan Reverse Transcription Reagents for qRT-PCR (Applied Biosystems Inc., Foster City, Calif., Cat. No. N8080234) according to the manufacturers' protocol. Samples were analyzed by quantitative real-time PCR on an ABI 7300 real-time PCR instrument (Applied Biosystems) using the ΔΔCT method. PCR reaction mixtures contained 75 ng of cDNA, 1×SYBR Green Mix (Applied Biosystems, Cat. No. 4367659), and 100 nM primers. Values were normalized to those of the hprt1 housekeeping gene (47).

full-length Flag-Mdm2 = target: T1, full-length Flag-Mdm2 (Homo sapiens, UniProt Q00987); experiment: in vitro ubiquitination assay, full-length Flag-Mdm2; assay type: biochemical
T1 construct: 100 ng of full-length Flag-Mdm2; made in house; host or cells: Sf9 insect cells (baculovirus; virus a gift from S. Grossman)
Description: These assays were performed with 100 ng of full-length Flag-Mdm2 or 200 ng of Flag-Mdm2/HA-MdmX complexes (100 ng of each protein as each are present in a 1:1 ratio, when purified), ^32P-labeled ubiquitin, UbCH5c, and E1. Following a 30-minute incubation at 37° C., reactions were terminated and resolved on a SDS-PAGE gel followed by autoradiography. PC indicates positive control, and NC indicates negative control with UbCH5C eliminated from the reaction. The gels were quantified by phosphoimaging using ImageQuant software (GE Healthcare Bio-Sciences Corp., Piscataway, N.J.). […] Reactions were performed as in FIG. 11A except 500 ng GST-Mdm2 (residues 400-491) and GST-MdmX (residues 400-490) were used for ubiquitin polymerization. […]
Full-length Mdm2 in vitro ubiquitination reactions were performed in 15 μl reaction mixtures containing 50 mM TrisHC1 pH 7.5, 5 mM MgCl2, 2 mM NaF, 2 mM ATP, 0.6 mM DTT, 50 ng E1 (Boston Biochem, Cat. No. E-305), 1 μg PK-ubiquitin, 50 ng His-UbCH5C, and 100 ng Flag-Mdm2. […] The products were resolved by SDS-PAGE and analyzed by Western blot with anti-p53, anti-Mdm2 SMP14, 2A10, 3G5 mix, or anti-MdmX antibodies. […]
Referring now to FIG. 28b, as shown, Mdm2 in vitro ubiquitination is not inhibited by MEL17 treatment. […] Samples were analyzed by Western blotting with anti-Mdm2 antibodies. […]

T1 sequence (Q00987 whole entry): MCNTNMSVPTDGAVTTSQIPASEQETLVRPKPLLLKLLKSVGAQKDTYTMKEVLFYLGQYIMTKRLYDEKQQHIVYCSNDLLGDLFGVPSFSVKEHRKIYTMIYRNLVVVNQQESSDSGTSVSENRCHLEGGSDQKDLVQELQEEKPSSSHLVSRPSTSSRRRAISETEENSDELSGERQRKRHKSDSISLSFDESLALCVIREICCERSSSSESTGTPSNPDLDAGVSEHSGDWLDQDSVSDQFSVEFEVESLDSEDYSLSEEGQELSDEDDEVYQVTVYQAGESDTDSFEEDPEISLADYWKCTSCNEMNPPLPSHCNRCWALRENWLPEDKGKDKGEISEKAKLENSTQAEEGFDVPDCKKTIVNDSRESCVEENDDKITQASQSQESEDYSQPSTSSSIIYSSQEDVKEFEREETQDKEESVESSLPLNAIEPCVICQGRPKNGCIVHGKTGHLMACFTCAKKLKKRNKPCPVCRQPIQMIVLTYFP

## CCCCn1c(=O)[nH]c(O)c(C2NCCc3c2[nH]c2ccccc32)c1=O (stereo not shown) [MEL23]
[1]
  complex formation (co-immunoprecipitation): did not inhibit p53-Mdm2 complex formation; also recorded: does not inhibit
Mdm2
  Mdm2 level in MEFs: increased Mdm2 in MEFs
[2]
  mRNA levels of p53 target genes Mdm2, p21, Bax, puma: increased within 48 hours of treatment; also recorded: increased the transcription of p53 target genes to intermediate levels compared to doxorubicin and ALLN
full-length Flag-Mdm2
  Mdm2 ligase activity (full-length Mdm2 in vitro ubiquitination): little to no inhibitory effect
